The source of these data is patent US4665088A, “(E-Z)-4,5,9-trithiadodeca-1,6,11-triene 9-oxides” (The Research Foundation of State University of New York, priority 1984, dated 1987).

Holding throughout (format): cell-based
One experiment concerns platelet aggregation. Nature of the experiment: Antithrombotic/anticoagulant activity (general statement). Conditions: for antithrombotic activity when combined with the compounds of the invention: combined with the compounds of the instant claimed invention. The text has this: (§1) Though the compounds of this invention have multiple uses such as for example as bacteriocides and fungicides, a particularly important utility is as an antithrombotic agent. Various chemicals are known to cause blood platelets to aggregate which in turn can result in blood clots in the blood circulatory system of living systems. Certain other compounds are known to prevent blood platelet aggregation and accordingly are known herein as antithrombotic agents, while other compounds prevent clotting of aggregated platelets and are called anticoagulants. Both are used in the treatment of phlebitis, stroke, coronary thrombosis and arteriosclerosis. In a typical test to determine antithrombotic activity, the suspected antithrombotic chemical is mixed with a suspension of blood platelets, incubated for a few minutes, and then the suspension is treated with a known amount of a known agonist (agent inducing aggregation). The effectiveness of the suspected antithrombotic is compared to a control which has been treated with the agonist but which has not been treated with the antithrombotic and a quantitative measure of effectiveness is determined by ascertaining the concentration of suspected antithrombotic necessary to reduce by 50% the extent of platelet aggregation compared to the control. This measurement is termed the ID50 of the antithrombotic. Typical agonists include collagen and ADP (adenosine diphosphate).

Experiment [1] deals with collagen-induced platelet aggregation (platelet rich, citrated, human blood plasma). In words: Inhibition of collagen-induced aggregation of platelets in platelet rich, citrated human blood plasma.
Source text: as §1
Platelet rich, citrated, human blood plasma (250,000 platelets/μL) was prepared and divided into 0.45 ml. aliquots for use in determining ID50 levels of the subject compounds. The aliquots were treated with various quantities of (E)-ajoene, (Z)-ajoene, mixed (E,Z)-ajoene and mixed (E,Z)-ajoene together with prostacyclin and indomethacin. A control was maintained free of antithrombotic. The thus treated aliquots were pre-incubated by maintaining in an aggregometer cuvette for 2 minutes at 37° C. with stirring (950 RPM). Each aliquot was then further treated with an appropriate amount of ADP (10 μmole) or collagen (1 μg/ml or 2 μg/ml). Aggregation in each aliquot was monitored for a period of 3-5 minutes and percentage aggregation was quantitated by a dual channel aggregometer which ascertained percent aggregation by comparison against a control of light transmittance through the sample.

The test system of experiment [2] is ADP-induced platelet aggregation (platelet rich, citrated, human blood plasma). In words: Inhibition of ADP-induced aggregation of platelets in platelet rich, citrated human blood plasma. As to conditions: ADP (10 μmole), read-out: ID50 (the source's name).
Source text: as §1, with “In a typical test to determine antithrombotic activity, the suspected antithrombotic chemical is mixed with a suspension of blood platelets, incubated for a few minutes, and then the suspension is treated with a known amount of a known agonist (agent inducing aggregation).” left out, “This measurement is termed the ID50 of the antithrombotic. Typical agonists include collagen and ADP (adenosine diphosphate).” left out
Platelet rich, citrated, human blood plasma (250,000 platelets/μL) was prepared and divided into 0.45 ml. aliquots for use in determining ID50 levels of the subject compounds. The aliquots were treated with various quantities of (E)-ajoene, (Z)-ajoene, mixed (E,Z)-ajoene and mixed (E,Z)-ajoene together with prostacyclin and indomethacin. […]

Where [3] appears, read: COLLAGEN (1 μg/ml), (E,Z)-ajoene 70:30 together with Prostacyclin (aliquot 5), read-out: ID50 (the source's name).
Where [4] appears, read: COLLAGEN (1 μg/ml), antithrombotic alone, read-out: ID50 (the source's name).
The mark [5] stands for this setting: COLLAGEN (2 μg/ml), read-out: ID50 (the source's name).

Read-outs that look alike come from different tables or passages of the source.

As to `C=CCSSC=CC[S+]([O-])CC=C` (stereo not shown) [(E,Z)-ajoene, (E,Z)-4,5,9-trithiadodeca-1,6,11-triene 9-oxide], the antithrombotic activity result with platelet aggregation is “significant antithrombotic activity”. Further, the IC50 came to 4.5 µM in experiment [1] (COLLAGEN (1 μg/ml), (E,Z)-ajoene 70:30 together with Indomethacin (aliquot 7), read-out: ID50 (the source's name)); 2.3 µM in experiment [1] (setting [3]); 92 µM in experiment [1] (setting [4]).

As for `C=CCSS/C=C/C[S+]([O-])CC=C` (stereo not shown) [(E)-ajoene], the IC50 in experiment [2] was 213 µM; in experiment [1] (setting [5]) it was 243 ± 90 µM.

As to `CCCCC[C@H](O)/C=C/[C@@H]1[C@H]2C/C(=C/CCCC(=O)O)O[C@H]2C[C@H]1O` [Prostacyclin, reference compound], in the experiment with platelet aggregation, the “antithrombotic activity when combined with the compounds of the invention” value is recorded as “particularly enhanced antithrombotic activity”. Besides, the IC50 in experiment [1] (setting [3]) and in experiment [1] (setting [4]) was 0.001 µM throughout.

With `C=CCSS/C=C\C[S+]([O-])CC=C` (stereo not shown) [(Z)-ajoene], the IC50 in experiment [2] was found to be 188 ± 38 µM; in experiment [1] (setting [5]), 196 ± 64 µM.

For `COc1ccc2c(c1)c(CC(=O)O)c(C)n2C(=O)c1ccc(Cl)cc1` [Indomethacin, reference compound], in the experiment on platelet aggregation, the “antithrombotic activity when combined with the compounds of the invention” value was “particularly enhanced antithrombotic activity”. Further, the IC50 in experiment [1] (read-out: ID50) amounted to 0.2 µM.
